The values below come from article PMC5024008 (American Journal of Transplantation, 2015).

Molecules are shown by their SMILES. A value given as a limit tells only on which side of the number the result lay.

The nature of data set [1]: Effect of a single dose of cyclosporine on DAA steady-state pharmacokinetics. The data set is classed as in vivo, human (healthy volunteers). The conditions noted are these: for change in pharmacokinetic parameters: by cyclosporine and tacrolimus, steady-state 3D regimen.
The conditions of data set [2]: ABT-450 200 mg and 250 mg for 12 to 24 weeks; HCV-infected patients; cited from earlier work.
The format of data set [3] is in vivo, human (healthy volunteers).

For the compound `COc1c(-c2ccc3cc(NS(C)(=O)=O)ccc3c2)cc(-n2ccc(=O)[nH]c2=O)cc1C(C)(C)C` [Dasabuvir, dasabuvir], the “change in pharmacokinetic parameters” value in data set [1] is ≤ 34%.

With `COc1c(-c2ccc3cc(NS(C)(=O)=O)ccc3c2)cc(-n2ccc(=O)[nH]c2=O)cc1C(C)(C)CO` [Dasabuvir M1], the “change in pharmacokinetic parameters” value in data set [1] was ≤ 34%.

As to `COC(=O)N[C@H](C(=O)N1CCC[C@H]1C(=O)Nc1ccc([C@@H]2CC[C@@H](c3ccc(NC(=O)[C@@H]4CCCN4C(=O)[C@@H](NC(=O)OC)C(C)C)cc3)N2c2ccc(C(C)(C)C)cc2)cc1)C(C)C` [Ombitasvir, ombitasvir], the “change in steady-state exposures (Cmax and AUC)” value in data set [1] (in the presence of cyclosporine or tacrolimus vs absence) was ≤ 15%.

For `Cc1cnc(C(=O)N[C@H]2CCCCC/C=C\[C@@H]3C[C@@]3(C(=O)NS(=O)(=O)C3CC3)NC(=O)[C@@H]3C[C@@H](Oc4nc5ccccc5c5ccccc45)CN3C2=O)cn1` [ABT-450], the safety and tolerability result in data set [2] was “safe and well tolerated”.

In the case of `CC(C)c1nc(CN(C)C(=O)N[C@H](C(=O)N[C@@H](Cc2ccccc2)C[C@H](O)[C@H](Cc2ccccc2)NC(=O)OCc2cncs2)C(C)C)cs1` [Ritonavir, ritonavir], the “change in pharmacokinetic parameters” value in data set [1] was ≤ 34%.

Broadly, the AUC(0-inf) is the area under the concentration-time curve extrapolated to infinity. As usually defined, the Cmax is the peak of the concentration-time curve. In general, Tmax refers to the time at which the peak concentration occurs. For the compound `C=CC[C@@H]1/C=C(\C)C[C@H](C)C[C@H](OC)[C@H]2O[C@@](O)(C(=O)C(=O)N3CCCC[C@H]3C(=O)O[C@H](/C(C)=C/[C@@H]3CC[C@@H](O)[C@H](OC)C3)[C@H](C)[C@@H](O)CC1=O)[C@H](C)C[C@@H]2OC` [tacrolimus], in data set [3] (human, whole blood, oral, 2 mg), the AUC(0-inf) is 118 ng·h/mL, the Cmax was 11 ng/mL, the Tmax turned out to be 1.8 h and the concentration at 12 h is 1.6 ng/mL. In data set [3] (human, whole blood, oral, 2 mg), this compound displayed a concentration at 24 h of 1.1 ng/mL. Moreover, the “delay in Tmax” value in data set [3] (in the presence of the 3D regimen at steady state vs tacrolimus alone) is 3.2 h. Further, the “dose-normalized C24 with 3D relative to dose-normalized C12 alone” value in data set [3] (tacrolimus with steady-state 3D regimen vs tacrolimus alone) was found to be 11 fold.
